Results as given in ChEMBL document CHEMBL4613212, “Insights of synthetic analogues of anti-leprosy agents” (Bioorg Med Chem, 2019).
≈ marks a conversion by molar mass, not a printed value.

What was measured:
[1] = tested on: Mycobacterium tuberculosis; experiment: Antimycobacterial activity against Mycobacterium tuberculosis H37Rv by BACTEC radiometric growth assay; type: functional
Mycobacterium leprae [2] = experiment: Inhibition of PGL1 synthesis in Mycobacterium leprae infected Swiss Webster mouse macrophages assessed as decrease in [U-14C]PA incorporation at 20 uM preincubated for 4 days post infection followed by [U-14C]PA addition and measured after 7 days by liquid scintillation counter analysis relative to control; type: functional
Mycobacterium leprae [3] = experiment: Anti-leprotic activity against rifampicin-susceptible Mycobacterium leprae primary cultures at 4 weeks assessed as [3H]thymidine uptake per 5 times 10^7 cells at 0.2 mg/L incubated for 24 hrs (reference value: 1.05 +/- 0.16 pmol); type: functional
Mycobacterium leprae [4] = experiment: Anti-leprotic activity against rifampicin-susceptible Mycobacterium leprae primary cultures at 4 weeks assessed as [3H]thymidine uptake per 5 times 10^7 cells at 0.4 mg/L incubated for 24 hrs (reference value: 1.05 +/- 0.16 pmol); type: functional
Mycobacterium leprae [5] = experiment: Anti-leprotic activity against rifampicin-susceptible Mycobacterium leprae subcultures at 4 weeks assessed as [3H]thymidine uptake per 5 times 10^7 cells at 0.2 mg/L incubated for 24 hrs (reference value: 1.41 +/- 0.20 pmol); type: functional
Mycobacterium leprae [6] = experiment: Anti-leprotic activity against rifampicin-susceptible Mycobacterium leprae subcultures at 4 weeks assessed as ATP level per 10^7 cells at 0.2 mg/L measured by bioluminescence assay (reference value: 425 +/- 64 pg); type: functional
Mycobacterium leprae [7] = experiment: Anti-leprotic activity against rifampicin-susceptible Mycobacterium leprae primary cultures at 4 weeks assessed as ATP level per 10^7 cells at 0.1 mg/L measured by bioluminescence assay (reference value: 332 +/- 46 pg); type: functional
Mycobacterium leprae [8] = experiment: Anti-leprotic activity against rifampicin-susceptible Mycobacterium leprae subcultures at 4 weeks assessed as [3H]thymidine uptake per 5 times 10^7 cells at 0.4 mg/L incubated for 24 hrs (reference value: 1.41 +/- 0.20 pmol); type: functional
Mycobacterium leprae [9] = experiment: Anti-leprotic activity against rifampicin-susceptible Mycobacterium leprae primary cultures at 4 weeks assessed as ATP level per 10^7 cells at 0.3 mg/L measured by bioluminescence assay (reference value: 332 +/- 46 pg); type: functional
Mycobacterium leprae [10] = experiment: Anti-leprotic activity against rifampicin-susceptible Mycobacterium leprae subcultures at 4 weeks assessed as ATP level per 10^7 cells at 0.1 mg/L measured by bioluminescence assay (reference value: 425 +/- 64 pg); type: functional
Mycobacterium leprae [11] = experiment: Anti-leprotic activity against rifampicin-susceptible Mycobacterium leprae primary cultures at 4 weeks assessed as [3H]thymidine uptake per 5 times 10^7 cells at 0.1 mg/L incubated for 24 hrs (reference value: 1.05 +/- 0.16 pmol); type: functional
Mycobacterium leprae [12] = experiment: Anti-leprotic activity against rifampicin-susceptible Mycobacterium leprae subcultures at 4 weeks assessed as ATP level per 10^7 cells at 0.4 mg/L measured by bioluminescence assay (reference value: 425 +/- 64 pg); type: functional
Mycobacterium leprae [13] = experiment: Anti-leprotic activity against rifampicin-susceptible Mycobacterium leprae subcultures at 4 weeks assessed as [3H]thymidine uptake per 5 times 10^7 cells at 0.3 mg/L incubated for 24 hrs (reference value: 1.41 +/- 0.20 pmol); type: functional
Mycobacterium leprae [14] = experiment: Anti-leprotic activity against rifampicin-susceptible Mycobacterium leprae primary cultures at 4 weeks assessed as [3H]thymidine uptake per 5 times 10^7 cells at 0.3 mg/L incubated for 24 hrs (reference value: 1.05 +/- 0.16 pmol); type: functional
Mycobacterium leprae [15] = experiment: Anti-leprotic activity against rifampicin-susceptible Mycobacterium leprae subcultures at 4 weeks assessed as ATP level per 10^7 cells at 0.3 mg/L measured by bioluminescence assay (reference value: 425 +/- 64 pg); type: functional
Mycobacterium leprae [16] = experiment: Anti-leprotic activity against rifampicin-susceptible Mycobacterium leprae primary cultures at 4 weeks assessed as ATP level per 10^7 cells at 0.2 mg/L measured by bioluminescence assay (reference value: 332 +/- 46 pg); type: functional
Mycobacterium leprae [17] = experiment: Anti-leprotic activity against rifampicin-susceptible Mycobacterium leprae subcultures at 4 weeks assessed as [3H]thymidine uptake per 5 times 10^7 cells at 0.1 mg/L incubated for 24 hrs (reference value: 1.41 +/- 0.20 pmol); type: functional
Mycobacterium leprae [18] = experiment: Anti-leprotic activity against rifampicin-susceptible Mycobacterium leprae primary cultures at 4 weeks assessed as ATP level per 10^7 cells at 0.4 mg/L measured by bioluminescence assay (reference value: 332 +/- 46 pg); type: functional
Mycobacterium leprae [19] = experiment: Anti-leprotic activity against Mycobacterium leprae infected in BALB/c mouse assessed as time delay in bacterial multiplication in footpad at 0.01 g/100g of diet administered via feed starting 60 or 75 day post infection up to 90 days by Shepard's kinetic method; type: functional
[20] = Drug excretion in rat urine at 400 mg/kg, sc administered as single dose measured after 30 days; type: ADME, organism-based; settings: read-out: Drug excretion
[21] = tested on: Mycolicibacterium smegmatis; experiment: Antimycobacterial activity against DDS resistant Mycobacterium smegmatis ATCC 607 […]; type: functional
[22] = Half life in rat at 400 mg/kg, sc administered as single dose; type: ADME, organism-based; settings: in vivo
Rattus norvegicus = experiment: Effect of metallo-protein haemoglobin in rat assessed as peak methemoglobin level at 400 mg/kg, sc administered as single dose; type: ADME, organism-based; settings: in vivo
Plasmodium berghei = experiment: Antimalarial activity against Plasmodium berghei infected in albino mouse assessed survival against infection at 400 mg/kg, sc administered as single dose; type: functional
[23] = tested on: Mycolicibacterium smegmatis; experiment: Antimycobacterial activity against DDS sensitive Mycobacterium smegmatis ATCC 607 […]; type: functional
[24] = Drug concentration in rat blood at 400 mg/kg, sc administered as single dose; type: ADME, organism-based; settings: in vivo
Monocyte [25] = experiment: Antiinflammatory activity in human monocytes assessed as inhibition of LPS-induced TNFaplha production at 0.5 uM preincubated for 15 mins followed by LPS addition and measured after 4 hrs by ELISA relative to control; type: functional
Monocyte [26] = experiment: Antiinflammatory activity in human monocytes assessed as inhibition of LPS-induced TNFaplha production at 5 uM preincubated for 15 mins followed by LPS addition and measured after 4 hrs by ELISA relative to control; type: functional
[27] = Cytotoxicity against LPS-induced human monocytes assessed as cell viability at 25 uM by tryphan blue staining based assay relative to control; parameters: species or system Monocyte; settings: read-out: Activity
Monocyte [28] = experiment: Antiinflammatory activity in human monocytes assessed as inhibition of LPS-induced TNFaplha production at 50 uM preincubated for 15 mins followed by LPS addition and measured after 4 hrs by ELISA relative to control; type: functional
[29] = Cytotoxicity against LPS-induced human monocytes assessed as cell viability at 50 uM by tryphan blue staining based assay relative to control; parameters: species or system Monocyte; settings: read-out: Activity
[30] = Cytotoxicity against LPS-induced human monocytes assessed as cell viability at 0.5 uM by tryphan blue staining based assay relative to control; parameters: species or system Monocyte; settings: read-out: Activity
[31] = Cytotoxicity against LPS-induced human monocytes assessed as cell viability at 5 uM by tryphan blue staining based assay relative to control; parameters: species or system Monocyte; settings: read-out: Activity
Monocyte [32] = experiment: Antiinflammatory activity in human monocytes assessed as inhibition of LPS-induced TNFaplha production at 25 uM preincubated for 15 mins followed by LPS addition and measured after 4 hrs by ELISA relative to control; type: functional
Mycobacterium leprae [33] = experiment: Anti-leprotic activity against Mycobacterium leprae infected in BALB/c weanling mouse assessed as bacteria killing at 20 mg/kg, ip administrated for 60 days and measured after 1 year by Spearman-Karber technique analysis relative to control; type: functional
Mycobacterium leprae [34] = experiment: Anti-leprotic activity against Mycobacterium leprae infected in BALB/c weanling mouse assessed as bacteria killing at 20 mg/kg, ip administrated for 60 days and measured after 1 year by most probable number technique analysis relative to control; type: functional
Mycobacterium leprae [35] = experiment: Inhibition of PGL1 synthesis in Mycobacterium leprae infected Swiss Webster mouse macrophages assessed as decrease in [U-14C]PA incorporation at 2 uM preincubated for 4 days post infection followed by [U-14C]PA addition and measured after 7 days by liquid scintillation counter analysis relative to control; type: functional
[36] = tested on: Mycobacterium tuberculosis; experiment: Antitubercular activity against Mycobacterium tuberculosis H37Rv ATCC 27294 incubated for 7 days by microplate alamar blue assay; type: functional; settings: H37Rv ATCC 27294, 168 h

## NNC(=O)c1ccncc1 [ISONIAZID]
[1]
  MIC: 0.1 to 0.4 µg/mL (≈ 0.729 to 2.92 µM)
Mycobacterium leprae [2]
  inhibition at 20 µM: 29%

## CCC(C)N1CCN(c2cc(O)c3nc4c5c6c7c(C)c(O)c5c(=O)c(c-4oc3c2)NC(=O)/C(C)=C\C=C\[C@H](C)[C@H](O)[C@@H](C)[C@@H](O)[C@@H](C)[C@H](OC(C)=O)[C@H](C)[C@@H](OC)/C=C/O[C@@](C)(O7)C6=O)CC1 (stereo in doubt; form 1)
Mycobacterium leprae [3]
  Activity: 0.76 pmol
Mycobacterium leprae [4]
  Activity: 0 pmol
Mycobacterium leprae [5]
  Activity: 1.18 pmol
Mycobacterium leprae [6]
  Activity: 235 pg
Mycobacterium leprae [7]
  Activity: 279 pg
Mycobacterium leprae [8]
  Activity: 0 pmol
Mycobacterium leprae [9]
  Activity: 0 pg
Mycobacterium leprae [10]
  Activity: 335 pg
Mycobacterium leprae [11]
  Activity: 0.92 pmol
Mycobacterium leprae [12]
  Activity: 0 pg
Mycobacterium leprae [13]
  Activity: 0.84 pmol
Mycobacterium leprae [14]
  Activity: 0 pmol
Mycobacterium leprae [15]
  Activity: 0 pg
Mycobacterium leprae [16]
  Activity: 233 pg
Mycobacterium leprae [17]
  Activity: 0 pmol
Mycobacterium leprae [18]
  Activity: 0 pg

## CC(=O)Nc1ccc(S(=O)(=O)c2ccc(N)cc2)cc1 [MONO-N-ACETYL DAPSONE]
Mycobacterium leprae [19]
  Time: 60 days
[20]
  dose excreted at 720 h: 50%
[21]
  MIC: > 300 µg/mL
[22]
  half-life: 32 days
Rattus norvegicus
  Activity: 1.2 g/dL
Plasmodium berghei
  Survival: 3.5 weeks
[23]
  MIC: 13.8 µg/mL (≈ 47.5 µM)
[24]
  Drug uptake: 1.3 µg/mL

## CCC1(N2C(=O)c3ccccc3C2=O)C(=O)NC(=O)N(c2ccccc2)C1=O (stereo unspecified)
Monocyte [25]
  inhibition at 0.5 µM: 12%
Monocyte [26]
  inhibition at 5 µM: 88%
[27]
  viability at 25 µM: 73%
Monocyte [28]
  inhibition at 50 µM: 100%
[29]
  viability at 50 µM: 68%
[30]
  viability at 0.5 µM: 87%
[31]
  viability at 5 µM: 80%
Monocyte [32]
  inhibition at 25 µM: 100%

## NC[C@H]1O[C@H](O[C@H]2[C@H](O)[C@@H](O[C@H]3O[C@H](CO)[C@@H](O)[C@H](N)[C@H]3O)[C@H](N)C[C@@H]2N)[C@H](N)C[C@@H]1O [TOBRAMYCIN]
Mycobacterium leprae [33]
  Activity: 37%
Mycobacterium leprae [34]
  Activity: 28.7%

## GENTAMICIN
Mycobacterium leprae [33]
  Activity: 60%
Mycobacterium leprae [34]
  Activity: 58.5%

## CCCN1CCN(c2cc(O)c3nc4c5c6c7c(C)c(O)c5c(=O)c(c-4oc3c2)NC(=O)/C(C)=C\C=C\[C@H](C)[C@H](O)[C@@H](C)[C@@H](O)[C@@H](C)[C@H](OC(C)=O)[C@H](C)[C@@H](OC)/C=C/O[C@@](C)(O7)C6=O)CC1
Mycobacterium leprae [3]
  Activity: 0.79 pmol
Mycobacterium leprae [4]
  Activity: 0 pmol
Mycobacterium leprae [5]
  Activity: 1.3 pmol
Mycobacterium leprae [6]
  Activity: 0 pg
Mycobacterium leprae [7]
  Activity: 298 pg
Mycobacterium leprae [8]
  Activity: 0 pmol
Mycobacterium leprae [9]
  Activity: 0 pg
Mycobacterium leprae [10]
  Activity: 369 pg
Mycobacterium leprae [11]
  Activity: 0.97 pmol
Mycobacterium leprae [12]
  Activity: 0 pg
Mycobacterium leprae [13]
  Activity: 0.84 pmol
Mycobacterium leprae [14]
  Activity: 0 pmol
Mycobacterium leprae [15]
  Activity: 0 pg
Mycobacterium leprae [16]
  Activity: 245 pg
Mycobacterium leprae [17]
  Activity: 0 pmol
Mycobacterium leprae [18]
  Activity: 0 pg

## CO[C@H]1/C=C/O[C@@]2(C)Oc3c(C)c(O)c4c(O)c(c(/C=N/N5CCN(C)CC5)c(O)c4c3C2=O)NC(=O)/C(C)=C\C=C\[C@H](C)[C@H](O)[C@@H](C)[C@@H](O)[C@@H](C)[C@H](OC(C)=O)[C@@H]1C [RIFAMPIN]
Mycobacterium leprae [35]
  inhibition at 2 µM: 86%
Mycobacterium leprae [3]
  Activity: 0.7 pmol
Mycobacterium leprae [4]
  Activity: 0 pmol
Mycobacterium leprae [5]
  Activity: 0 pmol
Mycobacterium leprae [8]
  Activity: 0 pmol
Mycobacterium leprae [9]
  Activity: 0 pg
Mycobacterium leprae [12]
  Activity: 0 pg
Mycobacterium leprae [13]
  Activity: 0.73 pmol
Mycobacterium leprae [14]
  Activity: 0 pmol
[1]
  MIC: 2 µg/mL (≈ 2.43 µM)
Mycobacterium leprae [15]
  Activity: 0 pg
[36]
  MIC: 25 µg/mL (≈ 30.4 µM)
Mycobacterium leprae [18]
  Activity: 0 pg

## O=C1c2ccccc2C(=O)N1c1ccc(F)c(F)c1
Monocyte [25]
  inhibition at 0.5 µM: < 10%
Monocyte [26]
  inhibition at 5 µM: 84%
[27]
  viability at 25 µM: 88%
Monocyte [28]
  inhibition at 50 µM: 100%
[29]
  viability at 50 µM: 78%
[30]
  viability at 0.5 µM: 92%
[31]
  viability at 5 µM: 95%
Monocyte [32]
  inhibition at 25 µM: 100%

## O=C1c2ccccc2C(=O)N1c1cnc(O)nc1O
Monocyte [26]
  inhibition at 5 µM: < 10%
Monocyte [28]
  inhibition at 50 µM: < 10%
[29]
  viability at 50 µM: 91%
Monocyte [32]
  inhibition at 25 µM: < 10%

## CCc1cc(C(N)=S)ccn1 [ETHIONAMIDE]
Mycobacterium leprae [35]
  inhibition at 2 µM: 77%
Mycobacterium leprae [2]
  inhibition at 20 µM: 97%
